Laboratory results published in patent US7635703B2, “Imidazole substituted pyrazole kinase inhibitors” (Janssen Pharmaceutica N.V., priority 2006, dated 2009).
pIC50: −log10 of the molar value.

Experiments:
[1] = target: T1, human CDK1 catalytic subunit and cyclin B (Homo sapiens, UniProt P06493); experiment: CDK1 screening assay (33P-ATP FlashPlate); format: biochemical; conditions: 10 μM ATP, 1 hr at 30° C.
T1 construct: purchased New England Biolabs, Beverly, Mass; 6020; host or cells: insect cells
T1 sequence (P06493 whole entry): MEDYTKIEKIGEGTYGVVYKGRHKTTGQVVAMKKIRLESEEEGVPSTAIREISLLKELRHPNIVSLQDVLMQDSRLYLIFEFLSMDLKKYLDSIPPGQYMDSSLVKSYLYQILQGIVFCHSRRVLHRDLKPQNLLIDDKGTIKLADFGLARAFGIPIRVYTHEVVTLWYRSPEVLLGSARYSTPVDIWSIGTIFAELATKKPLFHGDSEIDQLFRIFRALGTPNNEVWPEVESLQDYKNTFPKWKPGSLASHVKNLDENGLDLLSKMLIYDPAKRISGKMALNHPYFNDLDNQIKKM
T1 sequence (P14635 whole entry partner): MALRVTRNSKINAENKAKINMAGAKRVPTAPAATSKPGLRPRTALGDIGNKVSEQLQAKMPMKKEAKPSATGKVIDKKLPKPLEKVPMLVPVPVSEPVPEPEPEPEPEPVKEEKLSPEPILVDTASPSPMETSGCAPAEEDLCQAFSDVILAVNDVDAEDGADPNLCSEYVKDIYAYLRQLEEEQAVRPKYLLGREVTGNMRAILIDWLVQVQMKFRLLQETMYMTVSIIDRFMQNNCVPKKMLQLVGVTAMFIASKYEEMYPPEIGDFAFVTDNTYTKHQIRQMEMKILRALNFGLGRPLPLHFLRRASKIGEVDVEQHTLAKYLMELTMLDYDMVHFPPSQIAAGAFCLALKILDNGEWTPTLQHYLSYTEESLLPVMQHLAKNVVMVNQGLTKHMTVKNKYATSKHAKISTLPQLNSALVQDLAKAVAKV
Experimental: (§1) A kinase reaction mixture was prepared containing 50 mM Tris-HCl pH=8, 10 mM MgCl2, 0.1 mM […], 1 mM DTT, 10 μM ATP, 0.025 μM biotinylated histone-H1 peptide substrate and 0.2 μCuries per well ^33P-γ-ATP (2000-3000 Ci/mmol). 70 μL of the kinase reaction mixture was dispensed into the well of a streptavidin coated FlashPlate™ (Cat. # SMP103, NEN, Boston, Mass.).
(§2) Test compound stock in 100% DMSO (1 μL) was added to the wells resulting in a final concentration of 1% DMSO in the reaction with a 100 μL final reaction volume. Each enzyme was diluted in 50 mM Tris-HCl pH=8.0, 0.1% BSA and 30 μL was added to each well to initiate the reaction. The reaction was incubated for one hour at 30° C. At the end of the 1 hr incubation, the reaction was terminated by aspirating the mixture from the plate and washing the wells twice with PBS containing 100 mM EDTA. The biotinylated peptide substrate became immobilized on the Flashplate™ and the incorporation of ^33P-γ-ATP was measured by reading the plate on a scintillation counter. Inhibition of the enzymatic activity was measured by observing a reduced amount of ^33P-γ-ATP incorporated into the immobilized peptide.
The CDK1 enzyme was isolated from insect cells expressing both the human CDK1 catalytic subunit (Accession number NM_001786) and its positive regulatory subunit cyclin B (New England Biolabs, Beverly, Mass.; Cat. #6020). The assay used 30 ng of the N-terminal biotinylated peptide biotin-[…]-amide (Cyclin dependent kinase 1) per well.
(§3) A maximum and minimum signal for the assay was determined on each plate. The percent inhibition of a test compound was calculated according to the formula: […]
For a series of test concentrations, the IC50 was derived by graphing percent inhibition against the log of the concentrations tested for a given compound with results shown in Table 1.

[2] = target: T2, murine Aurora-A (polyhistidine fusion, full length) (Mus musculus, UniProt P97477); experiment: Aurora-A screening assay (33P-ATP FlashPlate); format: biochemical; conditions: 10 μM ATP, 1 hr at 30° C.
T2 construct: followed by the full length protein encoding the murine Aurora-A; polyhistidine (N); made in house; host or cells: sf9 insect cells
T2 sequence (P97477 1-395): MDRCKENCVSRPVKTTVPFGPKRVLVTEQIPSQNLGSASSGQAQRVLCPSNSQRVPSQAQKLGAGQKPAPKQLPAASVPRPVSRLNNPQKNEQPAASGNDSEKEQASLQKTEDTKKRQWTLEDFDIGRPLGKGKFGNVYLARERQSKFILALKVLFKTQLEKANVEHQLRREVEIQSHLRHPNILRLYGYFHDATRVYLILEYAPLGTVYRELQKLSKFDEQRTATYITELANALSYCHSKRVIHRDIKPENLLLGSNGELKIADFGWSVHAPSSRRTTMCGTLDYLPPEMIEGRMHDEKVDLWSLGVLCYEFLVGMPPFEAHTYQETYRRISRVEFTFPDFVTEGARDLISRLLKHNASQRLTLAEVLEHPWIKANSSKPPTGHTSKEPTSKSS
Experimental: (§4) 70 μL of the kinase reaction mixture was dispensed into the well of a streptavidin coated FlashPlate™ (Cat. # SMP103, NEN, Boston, Mass.).
as §2
Aurora-A is a fusion protein containing a polyhistidine tag at the N terminus followed by the full length protein encoding the murine Aurora-A (Accession number GB BC014711) expressed and purified from sf9 insect cells. The assay used 400 ng of the N-terminal biotinylated peptide biotin-[…]-amide (Aurora-A) per well.
as §3

[3] = target: T3, HER2 (GST/HIS6 fusion, amino acids 679 to 1255 of HER-2) (Homo sapiens, UniProt P04626); experiment: HER2 screening assay (33P-ATP FlashPlate); format: biochemical; conditions: 10 μM ATP, 1 hr at 30° C.
T3 construct: GST (Glutathione-S-Transferase) (N); HIS6 (N); thrombin cleavage site (N); purchased Proqinase, Freiburg, Germany
T3 sequence (P04626 679-1255): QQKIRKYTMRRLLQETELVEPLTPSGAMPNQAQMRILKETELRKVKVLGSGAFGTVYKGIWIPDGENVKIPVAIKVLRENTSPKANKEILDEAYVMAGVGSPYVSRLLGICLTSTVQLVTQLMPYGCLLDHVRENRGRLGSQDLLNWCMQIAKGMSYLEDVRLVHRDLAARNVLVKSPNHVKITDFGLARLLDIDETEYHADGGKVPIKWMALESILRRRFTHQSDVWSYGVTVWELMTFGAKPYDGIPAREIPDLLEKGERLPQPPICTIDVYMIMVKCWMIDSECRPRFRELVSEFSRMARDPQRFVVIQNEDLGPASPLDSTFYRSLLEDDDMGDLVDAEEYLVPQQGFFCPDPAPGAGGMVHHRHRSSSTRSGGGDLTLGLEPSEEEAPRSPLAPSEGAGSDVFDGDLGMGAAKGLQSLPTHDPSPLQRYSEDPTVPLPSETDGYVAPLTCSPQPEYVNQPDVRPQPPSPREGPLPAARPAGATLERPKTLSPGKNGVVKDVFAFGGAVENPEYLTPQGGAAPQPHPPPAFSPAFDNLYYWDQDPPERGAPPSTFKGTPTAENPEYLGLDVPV
Experimental: as §1, §2
The HER2 construct consisted of a fusion of GST (Glutathione-S-Transferase), HIS6 Thrombin and the nucleotides encoding amino acids 679 to 1255 of HER-2 (Accession number M11730) (Proqinase, Freiburg, Germany). The assay used 200 ng of the N-terminal biotinylated peptide biotin-poly(GT) 4:1 (HER2) per well.
as §3

[4] = system: A375 malignant melanoma; experiment: Cell proliferation inhibition assay (14C-thymidine incorporation), A375; format: cell-based; conditions: Homo sapiens, A-375, A375 cells
From the text: (§5) The ability of a test compound to inhibit unregulated cell proliferation may be determined by measuring incorporation of ^14C-labelled thymidine into newly synthesized DNA within cell lines derived from carcinomas originating from several tissues. Accordingly, the anti-proliferative effect of a compound on cells with a variety of phenotypes may be determined.
(§6) Carcinoma cell lines include those such as HeLa cervical adenocarcinoma (American Type Culture Collection (ATCC), Virginia, Cat. #CCL-2), A375 malignant melanoma (ATCC CRL-1619), and HCT-116 colon carcinoma (CCL-247).
(§7) The carcinoma cells are trypsinized and counted. The cells (3000-8000 count) are added to each well of a 96-well CytoStar tissue culture treated scintillating microplate (Amersham #RPNQ0160) in complete medium (100 μL) and the plate is then incubated in complete medium for 24 hrs at 37° C. in an inert atmosphere containing 5% CO2. Test compound (1 μL) in 100% DMSO is added to the plate test-wells with DMSO only added to control-wells. The plate is incubated in complete medium for a second 24 hr period at 37° C. in an atmosphere containing 5% CO2.
(§8) An aliquot of a solution of Methyl ^14C-thymidine (56 mC/mmol) (NEN #NEC568 or Amersham #CFA532) and complete medium (20 uL to provide 0.2 μCi/well) is then added to each well and the plate is incubated for a third 24 hr period at 37° C. in an atmosphere containing 5% CO2. The plate contents are then discarded, the plate is washed twice with PBS (200 μL) and then PBS (200 μL) is added to each well. The plate is sealed and the degree of methyl ^14C-thymidine incorporation is quantified on a Packard Top Count.
as §3
(§9) For a series of test concentrations, the IC50 was derived by graphing percent inhibition against the log of the concentrations tested for a given compound with results shown in Table 3.

[5] = system: HeLa cervical adenocarcinoma; experiment: Cell proliferation inhibition assay (14C-thymidine incorporation), HeLa; format: cell-based; conditions: Homo sapiens, HeLa cells
From the text: as §5, §6, §7, §8, §3, §9

[6] = system: HCT-116 colon carcinoma; experiment: Cell proliferation inhibition assay (14C-thymidine incorporation), HCT-116; format: cell-based; conditions: Homo sapiens, HCT-116 cells
From the text: as §5, §6, §7, §8, §3, §9

[7] = target: T4, rat VEGF-R2 kinase domain (polyhistidine fusion, amino acids 786 to 1343) (Rattus norvegicus, UniProt O08775); experiment: VEGFR2 screening assay (33P-ATP FlashPlate); format: biochemical; conditions: 10 μM ATP, 1 hr at 30° C.
T4 construct: amino acids 786 to 1343 of the rat VEGF-R2 kinase domain; polyhistidine (N)
T4 sequence (O08775 786-1343): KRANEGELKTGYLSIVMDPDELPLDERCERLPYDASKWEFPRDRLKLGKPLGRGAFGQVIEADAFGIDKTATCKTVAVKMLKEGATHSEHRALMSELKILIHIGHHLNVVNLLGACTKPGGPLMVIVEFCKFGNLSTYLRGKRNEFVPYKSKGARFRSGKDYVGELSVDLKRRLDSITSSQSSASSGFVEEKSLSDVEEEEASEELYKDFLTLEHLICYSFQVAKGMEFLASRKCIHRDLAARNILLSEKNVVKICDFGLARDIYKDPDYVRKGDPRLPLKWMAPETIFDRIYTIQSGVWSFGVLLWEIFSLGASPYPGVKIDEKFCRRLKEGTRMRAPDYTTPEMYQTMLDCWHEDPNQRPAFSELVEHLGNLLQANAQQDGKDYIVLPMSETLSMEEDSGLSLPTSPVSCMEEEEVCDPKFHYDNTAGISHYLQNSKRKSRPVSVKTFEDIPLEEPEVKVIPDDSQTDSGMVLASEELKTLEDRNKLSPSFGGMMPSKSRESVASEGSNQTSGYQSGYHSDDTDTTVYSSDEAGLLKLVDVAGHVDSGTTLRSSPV
Experimental: as §4, §2
The assay used 150 ng of the N-terminal biotinylated peptide biotin-[…]-amide (VEGF-R2) per well.
as §3

Row | pIC50 [1] | pIC50 [2] | pIC50 [3] | pIC50 [4] | pIC50 [5] | pIC50 [6] | pIC50 [7] | SMILES
1 | 7.74 | < 5.00 | < 4.00 | 5.13 | 5.50 | 5.76 | ~5.00 | CCNCc1cncc(/C=C/c2c[nH]nc2-c2nc(C(F)(F)F)c[nH]2)c1 [Cpd 1, ethyl-(5-{2-[3-(4-trifluoromethyl-1H-imidazol-2-yl)-1H-pyrazol-4-yl]-vinyl}-pyridin-3-ylmethyl)-amine]
2 | 6.32 | 6.93 | < 4.00 | 4.33 | < 5.00 | 4.62 | 4.53 | FC(F)(F)c1c[nH]c(-c2n[nH]cc2/C=C/c2cccnc2)n1 [Cpd 2, 3-{2-[3-(4-trifluoromethyl-1H-imidazol-2-yl)-1H-pyrazol-4-yl]-vinyl}-pyridine]
3 | 6.15 | < 5.00 | < 4.00 | < 5.00 | < 5.00 | 4.15 | < 5.00 | N#Cc1c[nH]c(-c2n[nH]cc2/C=C/c2cccnc2)n1 [Cpd 3, 2-[4-(2-pyridin-3-yl-vinyl)-1H-pyrazol-3-yl]-1H-imidazole-4-carbonitrile]
4 | 6.95 | 6.53 | – | 5.25 | 5.45 | 5.54 | 5.51 | FC(F)(F)c1cnc(-c2n[nH]cc2C=Cc2cncc3ccccc23)[nH]1 [Cpd 4, 4-{2-[3-(4-trifluoromethyl-1H-imidazol-2-yl)-1H-pyrazol-4-yl]-vinyl}-isoquinoline]
